Measured values from ChEMBL document CHEMBL1201862, “PubChem BioAssay data set” (2004).
The source made the active and inactive calls.

Assays:
[1] = molecular target: T1, Lysine-specific demethylase 4C (Homo sapiens, UniProt Q9H3R0); assay: inhibition of JMJD2C H3K9me3 demethylation – biochemical, DELFIA europium, cherry-picked samples, dose response (AID 488835); format: functional
T1 sequence (Q9H3R0 whole entry): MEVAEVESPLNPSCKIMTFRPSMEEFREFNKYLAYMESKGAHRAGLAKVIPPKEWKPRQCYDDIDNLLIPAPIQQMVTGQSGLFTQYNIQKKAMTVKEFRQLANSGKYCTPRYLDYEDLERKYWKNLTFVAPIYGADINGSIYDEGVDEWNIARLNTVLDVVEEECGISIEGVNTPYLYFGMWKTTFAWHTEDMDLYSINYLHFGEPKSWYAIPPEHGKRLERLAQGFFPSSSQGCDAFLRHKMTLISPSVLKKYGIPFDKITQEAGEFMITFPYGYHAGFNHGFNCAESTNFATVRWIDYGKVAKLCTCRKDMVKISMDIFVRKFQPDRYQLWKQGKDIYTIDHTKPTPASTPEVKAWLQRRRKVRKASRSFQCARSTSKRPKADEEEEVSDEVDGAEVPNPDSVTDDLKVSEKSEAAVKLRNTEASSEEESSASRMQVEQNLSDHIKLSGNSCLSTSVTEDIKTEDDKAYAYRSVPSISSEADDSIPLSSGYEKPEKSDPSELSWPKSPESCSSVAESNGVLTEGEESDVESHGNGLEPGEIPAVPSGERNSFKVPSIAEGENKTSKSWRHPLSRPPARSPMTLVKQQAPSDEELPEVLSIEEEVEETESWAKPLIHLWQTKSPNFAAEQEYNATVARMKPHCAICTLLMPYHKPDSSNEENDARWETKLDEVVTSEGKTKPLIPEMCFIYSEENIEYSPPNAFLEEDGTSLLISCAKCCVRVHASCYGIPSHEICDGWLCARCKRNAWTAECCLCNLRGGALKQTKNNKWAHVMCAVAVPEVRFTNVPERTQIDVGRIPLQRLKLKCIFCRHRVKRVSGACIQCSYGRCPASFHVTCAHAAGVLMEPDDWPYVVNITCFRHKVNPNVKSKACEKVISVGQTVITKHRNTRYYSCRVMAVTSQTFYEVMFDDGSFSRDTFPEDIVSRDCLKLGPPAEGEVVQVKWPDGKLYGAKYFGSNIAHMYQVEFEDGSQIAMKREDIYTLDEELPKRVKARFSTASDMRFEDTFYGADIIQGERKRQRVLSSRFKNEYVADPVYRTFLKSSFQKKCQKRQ

[2] = test system: BJ; assay: cells; format: functional, cell-based; details: Homo sapiens
[3] = fluconazole-exposed Candida albicans growth modulators – fluorescence, retest, confirmation (AID 2467); format: functional, cell-based
[4] = molecular target: Fatty acid synthase (Homo sapiens, UniProt P49327); assay: inhibition of human FAS-TE enzyme activity – biochemical, endpoint fluorescence intensity, uHTS hits, dose response (AID 624327); format: functional;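 note: fluorescence from hydrolysis of an O-methyl fluorescein acyl ester substrate by the enzyme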
[5] = HIV-1 Vif–A3G interaction blockers – biochemical, TR-FRET, GST-Vif 1-94, biotin-A3G peptide, dose response retest, primary screen (AID 1117319); format: functional;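 note: TR-FRET signal of purified GST-Vif binding a biotinylated A3G peptide; inhibitors lower the FRET signal by blocking Vif and A3G binding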
[6] = test system: HEK293; assay: cells; details: Homo sapiens
[7] = test system: HEK293; assay: cells; details: Homo sapiens; remark: listed apart in the source

Sequence of Fatty acid synthase (P49327 whole entry): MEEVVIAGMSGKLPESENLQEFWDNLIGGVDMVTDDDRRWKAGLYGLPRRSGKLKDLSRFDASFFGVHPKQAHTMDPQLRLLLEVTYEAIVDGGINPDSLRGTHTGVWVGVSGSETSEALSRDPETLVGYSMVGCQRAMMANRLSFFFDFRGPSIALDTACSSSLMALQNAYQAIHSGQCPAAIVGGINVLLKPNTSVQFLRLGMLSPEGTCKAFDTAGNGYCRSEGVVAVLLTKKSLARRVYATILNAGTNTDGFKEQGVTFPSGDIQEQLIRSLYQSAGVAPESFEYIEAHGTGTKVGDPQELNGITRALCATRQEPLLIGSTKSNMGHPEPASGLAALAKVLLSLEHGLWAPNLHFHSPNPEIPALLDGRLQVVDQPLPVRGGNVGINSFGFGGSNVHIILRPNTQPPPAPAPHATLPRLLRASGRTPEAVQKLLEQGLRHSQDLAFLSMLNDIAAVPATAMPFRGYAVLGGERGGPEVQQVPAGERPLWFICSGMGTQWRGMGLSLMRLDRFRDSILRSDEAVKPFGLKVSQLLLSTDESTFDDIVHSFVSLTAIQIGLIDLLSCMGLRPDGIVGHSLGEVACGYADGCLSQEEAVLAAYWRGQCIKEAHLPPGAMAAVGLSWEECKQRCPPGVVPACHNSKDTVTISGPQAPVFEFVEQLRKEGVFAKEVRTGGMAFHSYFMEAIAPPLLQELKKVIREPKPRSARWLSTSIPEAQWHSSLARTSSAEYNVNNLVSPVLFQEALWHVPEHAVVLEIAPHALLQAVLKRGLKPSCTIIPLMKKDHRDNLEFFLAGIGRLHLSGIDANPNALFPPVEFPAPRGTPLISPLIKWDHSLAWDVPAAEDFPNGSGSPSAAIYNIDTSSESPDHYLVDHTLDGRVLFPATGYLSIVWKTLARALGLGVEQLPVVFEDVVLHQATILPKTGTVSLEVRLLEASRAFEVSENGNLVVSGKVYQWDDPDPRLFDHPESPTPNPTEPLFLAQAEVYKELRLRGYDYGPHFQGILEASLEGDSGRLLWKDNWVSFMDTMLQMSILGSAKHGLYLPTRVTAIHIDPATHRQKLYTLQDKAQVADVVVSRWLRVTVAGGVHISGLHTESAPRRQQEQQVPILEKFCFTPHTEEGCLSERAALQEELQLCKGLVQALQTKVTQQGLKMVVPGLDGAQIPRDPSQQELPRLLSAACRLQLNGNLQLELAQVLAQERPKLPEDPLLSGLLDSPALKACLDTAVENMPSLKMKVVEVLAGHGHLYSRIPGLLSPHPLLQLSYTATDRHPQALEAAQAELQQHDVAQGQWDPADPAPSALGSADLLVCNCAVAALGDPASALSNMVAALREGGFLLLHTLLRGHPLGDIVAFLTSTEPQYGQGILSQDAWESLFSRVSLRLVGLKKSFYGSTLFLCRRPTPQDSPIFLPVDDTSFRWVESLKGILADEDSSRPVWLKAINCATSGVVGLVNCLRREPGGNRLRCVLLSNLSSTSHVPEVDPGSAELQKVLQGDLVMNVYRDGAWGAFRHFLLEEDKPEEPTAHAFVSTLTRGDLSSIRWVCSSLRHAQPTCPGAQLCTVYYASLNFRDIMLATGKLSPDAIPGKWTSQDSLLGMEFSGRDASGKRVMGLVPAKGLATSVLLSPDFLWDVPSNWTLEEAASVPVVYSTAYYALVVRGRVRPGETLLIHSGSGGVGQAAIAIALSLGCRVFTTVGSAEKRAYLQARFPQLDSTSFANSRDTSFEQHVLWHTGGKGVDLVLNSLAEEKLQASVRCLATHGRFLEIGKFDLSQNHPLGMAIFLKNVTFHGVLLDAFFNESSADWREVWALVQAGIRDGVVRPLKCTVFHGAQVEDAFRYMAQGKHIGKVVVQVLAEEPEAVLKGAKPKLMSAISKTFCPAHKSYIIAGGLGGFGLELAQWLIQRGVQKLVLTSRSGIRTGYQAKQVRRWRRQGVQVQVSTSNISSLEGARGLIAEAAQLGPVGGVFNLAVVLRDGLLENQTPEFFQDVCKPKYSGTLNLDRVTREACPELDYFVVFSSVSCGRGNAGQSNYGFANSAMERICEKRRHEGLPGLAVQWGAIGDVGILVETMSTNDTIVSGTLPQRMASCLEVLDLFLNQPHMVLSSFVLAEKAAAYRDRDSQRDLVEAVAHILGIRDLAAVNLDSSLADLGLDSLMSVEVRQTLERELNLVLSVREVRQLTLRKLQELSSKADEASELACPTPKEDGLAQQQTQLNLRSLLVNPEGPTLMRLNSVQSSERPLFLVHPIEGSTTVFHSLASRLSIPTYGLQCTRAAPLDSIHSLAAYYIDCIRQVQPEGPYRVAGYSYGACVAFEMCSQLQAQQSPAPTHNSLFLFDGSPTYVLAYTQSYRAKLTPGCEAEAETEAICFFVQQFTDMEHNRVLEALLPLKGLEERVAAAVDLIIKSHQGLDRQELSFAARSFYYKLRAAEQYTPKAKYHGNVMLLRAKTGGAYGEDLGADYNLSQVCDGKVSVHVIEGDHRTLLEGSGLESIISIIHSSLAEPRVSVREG

Row | AC50 [1] | SMILES | EC50 [2] | EC50 [3] | IC50 [4] | IC50 [5] | EC50 [6] | EC50 [7]
1 | 6.61 µM (active) | O=C1c2ccccc2C(=O)C12OC2c1cccc2ccccc12 (configuration not stated) |  |  |  |  |  | 
2 |  | O=[N+]([O-])c1ccc(Sc2nc3ccccc3o2)c([N+](=O)[O-])c1 | 8.14 µM (active) | 1.37 µM (active) | 15.8 µM (active) | > 100 µM (active) | > 59.6 µM (inactive) | > 59.6 µM (inactive)
